Assay results taken from patent US4386075A, “Renally active tetrapeptides” (SmithKline Beckman Corporation, priority 1982, dated 1983).

What was measured:
[1] = tested on: spontaneously hypertensive rat; conditions: in vivo
toad bladder = toad bladder test
[2] = secondary test
anesthetized dogs = test: anesthetized dog infusion test (MAP, RBF, RVR, HR); assay type: in vivo; conditions: for % change HR (heart rate) / % change MAP (mean arterial blood pressure) / % change RBF (renal blood flow) / % change RVR (renal vascular resistance): 1 dog
Source text: In the anesthetized dog protocol discussed above this compound gave the following data: […]

[3] = 300 μg/kg/min, anesthetized dog, cumulative effects

4-(4-hydroxyphenyl)-butyryl-L-propyl-D,L-α-methylphenylalanyl-glycyl-L-proline [Example 2]
activity in spontaneously hypertensive rat protocol [1]: not active
diuresis in spontaneously hypertensive rat protocol [1]: slight water diuresis
reversal of antidiuretic hormone activity (toad bladder): inactive
ED15 [2]: 1.9 µg/kg
% change HR (heart rate) (anesthetized dogs; infusion 3 μg/kg/min): 6%
% change MAP (mean arterial blood pressure) (anesthetized dogs; infusion 3 μg/kg/min): -5%
% change RBF (renal blood flow) (anesthetized dogs; infusion 3 μg/kg/min): 17%
% change RVR (renal vascular resistance) (anesthetized dogs; infusion 3 μg/kg/min): -18%
% change HR (heart rate) (anesthetized dogs; infusion 30 μg/kg/min): 10%
% change MAP (mean arterial blood pressure) (anesthetized dogs; infusion 30 μg/kg/min): -9%
% change RBF (renal blood flow) (anesthetized dogs; infusion 30 μg/kg/min): 16%
% change RVR (renal vascular resistance) (anesthetized dogs; infusion 30 μg/kg/min): -21%
% change HR (heart rate) (anesthetized dogs; infusion 300 μg/kg/min): 6%
% change MAP (mean arterial blood pressure) (anesthetized dogs; infusion 300 μg/kg/min): -6%
% change RBF (renal blood flow) (anesthetized dogs; infusion 300 μg/kg/min): 14%
% change RVR (renal vascular resistance) (anesthetized dogs; infusion 300 μg/kg/min): -17%
renal blood flow, cumulative effect (anesthetized dogs; measured after the normal period of the test, increased from 127 ml/min): 162 mL/min
cardiac rate (HR), cumulative effect (anesthetized dogs; measured after the normal period of the test, predrug level 140 BPM): 105 BPM

NCCc1ccc(O)c(O)c1 [Dopamine, reference compound]
ED15 [2]: 3.5 µg/kg
ED15 (anesthetized dogs; dog test procedure): about 3 mcg/kg/min
% change HR (heart rate) (anesthetized dogs; infusion 3 μg/kg/min): 2%
% change MAP (mean arterial blood pressure) (anesthetized dogs; infusion 3 μg/kg/min): -16%
% change RBF (renal blood flow) (anesthetized dogs; infusion 3 μg/kg/min): 28%
% change RVR (renal vascular resistance) (anesthetized dogs; infusion 3 μg/kg/min): -34%

N-4-(4-hydroxyphenyl)-butyryl-L-prolyl-D-phenylalanyl-glycyl-L-proline [Example 3]
cumulative effect HR (anesthetized dogs; [3]): -8
cumulative effect MAP (anesthetized dogs; [3]): 0
cumulative effect RBF (anesthetized dogs; [3]): +22
cumulative effect RVR (anesthetized dogs; [3]): -18
